The values below come from patent US20120171123A1, “USES AND COMPOSITIONS FOR TREATMENT OF RHEUMATOID ARTHRITIS” (priority 2006, published 2012).

In assay [1] the test system is RA patients treated with adalimumab in clinical trials in North America and Europe.
Description: The rate of TB was calculated for the period before screening was initiated (primarily Phase I trials) and the period after screening was implemented. The screening program consisted of a clinical interview, a tuberculin skin test, and, in most patients, a chest X-ray (CXR). The definition of PPD-positive depended on local country-specific guidelines. For those people who were PPD-positive, or for whom the investigator felt the risk of TB reactivation was high, INH was given for prophylaxis.
The methodology differed among protocols. For instance, in Europe and Australia, it was initially used CXR only, and in later studies, CXR and purified protein derivative skin test (PPD) were both used. By contrast, in US and Canada, CXR and PPD were both used.
In assay [2] the test system is MTX-naïve adult patients with early RA (<3 years). The assay is described as follows: Study J: escalation of injectable medicine from eow to weekly dosing. Type of assay: in vivo, human. The method, then: Study J was a 2-year, double-blind, active comparator-controlled, Phase III study. […] In patients receiving ADA+MTX or MTX monotherapy, the 7.5 mg MTX weekly dosage increased to 20 mg over 8 weeks, as tolerated and as needed. Monotherapy patients received either placebo pills (adalimumab arm) or placebo injections (MTX arm). Efficacy outcomes measured included ACR response, DAS28 remission, major clinical response, and radiographic change from baseline.
MTX optimization was required before starting weekly injections (to 20 mg weekly, maximum). Once initiated, weekly dosing of injectable medicine was to be maintained until end of study. Criteria for identification of dosage escalators were a sequence of 4 consecutive injections for which the interval for every two consecutive injections was ≦10 days, and/or that the date of escalation, defined as the second of the 4 injections, had to be on or after Week 16 in Year 1. Three dosage escalator categories were defined, based on best ACR response rate achieved any time prior to escalation: Group A=ACR non-responders (never achieved ACR20 prior to dosage escalation), Group B=Partial responders (achieved ACR20 or ACR50 at least once prior to escalation, but never ACR70), and Group C=ACR70 responders (achieved ACR70 at least once prior to escalation). Data are from the intention-to-treat (ITT) population, with missing data analyzed by non-responder imputation (NRI) for clinical measures and by linear imputation for total Sharp scores (TSS).

Assay [3] deals with patients with long-standing RA who had inadequate responses to MTX. The assay is described as follows: Study 1 (adalimumab + MTX vs placebo + MTX, 12-month RCT plus OLE): radiographic progression (TSS, JE, JSN). In kind it is in vivo, human. The method, then:
The study design included a 12 month, double blind, randomized, placebo-controlled trial.
Patients were grouped into three cohorts based on baseline CRP concentrations: low (<1 mg/dL); intermediate (1-4 mg/dL); and high (>4 mg/dL). Analyses were further conducted in two categories of patients according to their change in CRP concentrations at Week 12: those with a ≧20% decrease in CRP from baseline; or those with a <20% decrease in CRP from baseline. The following efficacy and radiographic measures were analyzed at Week 52 in the three baseline CRP categories and in the two Week 12 change in CRP categories: DAS28, ACR 20/50/70, Health assessment questionnaire (HAQ), and Total Sharp score (TSS).
Two readers assessed X-rays performed at baseline (start of RCT), 1 year (end of RCT), and 3 years (post 2 years OLE). Changes from baseline in Total Sharp Score (TSS), Joint Erosions (JE), and Joint Space Narrowing (JSN) were calculated. ACR 20, 50, and 70 response rates, as well as TJC and SJC, were also measured.

Assay [4] relates to patients with moderate to severe RA. Nature of the assay: Study 1: Health Utilities Index Mark 3 (HUI3). Type of assay: in vivo, human. As to conditions: week 52. As for the experimental part:
The HUI3 was assessed at baseline, and at several time points during the study. Health Utility Index 3 (scale=0-1) measures preference of a health state, with “1” denoting perfect health and “0” denoting death. HUI3 changes of ≧0.03 are considered clinically important. The HUI3 classification system consists of 8 attributes and 5 or 6 levels on each attribute, ranging from full function to severe impairment.

Assay [5] concerns patients with RA. The assay is described as follows: Study I (adalimumab 40 mg eow + MTX vs placebo + MTX, 24 weeks): FACIT-F fatigue. As to conditions: for mean FACIT-F change from baseline: week 24 (6 months). Type of assay: in vivo, human. The method, then: FACIT-F was administered at baseline, at 1 or 2 time points during the study, and at the end of the study. The questionnaire asked each patient the following “Below is a list of statements that other people with your illness have said are important. By circling one (1) number per line, please indicate how true each statement has been for you during the past 7 days.” The questions in the questionnaire used to determine the FACIT score included the following, where each patient indicated the appropriate number (0-4): I feel fatigued; I feel weak all over; I feel listless (“washed out”); I feel tired; I have trouble starting things because I am tired; I have trouble finishing things because I am tired; I have energy; I am able to do my usual activities; I need to sleep during the day; I am too tired to eat; I need help doing my usual activities; I am frustrated by being too tired to do the things I want to do; I have to limit my social activity because I am tired. FACIT-F scores range from 0-52, with higher scores representing less fatigue. FACIT-F changes of ≧4 are considered clinically meaningful.
For Study I, the mean change in baseline for the FACIT-F score at 6 months was 8.1 for ada 40 mg eow+mtx and 2.5 for placebo+mtx (p=0.01). The minimum clinical important difference was determined to be ≧4.0.

For assay [6], the system named is patients with RA. Nature of the assay: Study I: HUI3 health utility. Type of assay: in vivo, human. As to conditions: for mean HUI3 change from baseline: week 24 (6 months). The method, then:
Inclusion criteria for this study included: all patients had severe active disease; and all patients had failed prior DMARD(s).
The Health Utilities Index Mark 3 (HUI3) was assessed at three time points. HUI 3 consists of 8 attributes: vision, hearing, speech, ambulation, dexterity, emotion, cognition, and pain. HUI3 score changes of ≧0.03 are considered clinically important. […] As can also be seen in this figure, the Study 2 study population started with baseline values reflecting a patient population with a more severe disease activity than in Study I, as documented by TJC, SJC, HAQ, CRP, and number of previous DMARDs.

On to `NNC(=O)c1ccncc1` [INH, isoniazid, reference compound], for which, in assay [1] (835 patients who received INH), the “patients who developed TB after INH prophylaxis” value turned out to be 0.5%. In assay [1] (Study A, 712 high-risk subjects given INH before adalimumab), the “subjects who developed TB after INH prophylaxis” value is recorded as 0.6%.
For `CN(Cc1cnc2nc(N)nc(N)c2n1)c1ccc(C(=O)N[C@@H](CCC(=O)O)C(=O)O)cc1` [MTX Monotherapy], in assay [2] (1 year), the “Patients who became ACR20 responders after increase to weekly dosing” value is 4%, the “Patients who became ACR50 responders after increase to weekly dosing” value is reported as 1% and the “Patients who reached DAS28 < 2.6 (remission) after increase to weekly dosing” value is 0%. Also, in assay [2] (2 years), the “Patients who became ACR20 responders after increase to weekly dosing” value is given as 4%, the “Patients who became ACR50 responders after increase to weekly dosing” value was 2% and the “Patients who reached DAS28 < 2.6 (remission) after increase to weekly dosing” value turned out to be 1%. In assay [2] (ACR70 for ≧6 consecutive months over a 2-year period), the “Patients with Major Clinical Response after increase to weekly dosing” value was determined as 1%.
For `CN(Cc1cnc2nc(N)nc(N)c2n1)c1ccc(C(=O)N[C@@H](CCC(=O)O)C(=O)O)cc1` [placebo+mtx, methotrexate], the entries for the “mean change from baseline in Total Sharp Score” value in assay [3] (12 months (blinded)) and in assay [3] (36 months (open-label; all patients on adalimumab 40 mg eow + mtx after month 12)) were 2.8 and 3.0, respectively. Moreover, the “mean change from baseline in joint erosion score” value in assay [3] (12 months (blinded)) and in assay [3] (36 months (open-label)) was 1.7 throughout. Further, the “mean change from baseline in joint space narrowing score” value in assay [3] (12 months (blinded)) was determined as 1.2; in assay [3] (36 months (open-label)) it was 1.3. Besides, the “mean HUI3 improvement from baseline” value in assay [4] is “+0.07”. Moreover, the “relative HUI3 improvement from baseline” value in assay [4] is given as “+18%”. Moreover, the “relative FACIT-F change from baseline” value in assay [5] (week 24) was “+9%”. Further, the “mean FACIT-F change from baseline” value in assay [5] is reported as 2.5; in assay [5] (listed as placebo + MTX), “+2.5”. For the same molecule, in assay [6] (week 24), the “relative HUI3 change from baseline” value is given as “+10%”. In addition, the figures for the “mean HUI3 change from baseline” value in assay [6], in assay [6] (listed as Placebo + mtx) and in assay [6] (listed as placebo + MTX) were 0.04, 0.04 and “+0.04”, respectively.
